Results from ChEMBL document CHEMBL4330132, “5-Keto-3-cyano-2,4-diaminothiophenes as selective maternal embryonic leucine zipper kinase inhibitors” (Bioorg Med Chem Lett, 2019).

Legend:
[1] = molecular target: Death-associated protein kinase 2 (Homo sapiens) (UniProt Q9UIK4); assay: Binding affinity to wild-type human full length DAPK2 (M1 to S370 residues) expressed in bacterial expression system assessed as residual binding level at 1 uM by Kinomescan method relative to control
[2] = molecular target: Phosphatidylinositol 4,5-bisphosphate 3-kinase catalytic subunit gamma isoform (Homo sapiens) (UniProt P48736); assay: Binding affinity to wild-type human partial length PIK3CG (S144 to A1102 residues) expressed in mammalian expression system assessed as residual binding level at 1 uM by Kinomescan method relative to control
Chain of Phosphatidylinositol 4,5-bisphosphate 3-kinase catalytic subunit gamma isoform (Homo sapiens) (P48736 whole entry, looked up, the tested form may be a part, canonical isoform): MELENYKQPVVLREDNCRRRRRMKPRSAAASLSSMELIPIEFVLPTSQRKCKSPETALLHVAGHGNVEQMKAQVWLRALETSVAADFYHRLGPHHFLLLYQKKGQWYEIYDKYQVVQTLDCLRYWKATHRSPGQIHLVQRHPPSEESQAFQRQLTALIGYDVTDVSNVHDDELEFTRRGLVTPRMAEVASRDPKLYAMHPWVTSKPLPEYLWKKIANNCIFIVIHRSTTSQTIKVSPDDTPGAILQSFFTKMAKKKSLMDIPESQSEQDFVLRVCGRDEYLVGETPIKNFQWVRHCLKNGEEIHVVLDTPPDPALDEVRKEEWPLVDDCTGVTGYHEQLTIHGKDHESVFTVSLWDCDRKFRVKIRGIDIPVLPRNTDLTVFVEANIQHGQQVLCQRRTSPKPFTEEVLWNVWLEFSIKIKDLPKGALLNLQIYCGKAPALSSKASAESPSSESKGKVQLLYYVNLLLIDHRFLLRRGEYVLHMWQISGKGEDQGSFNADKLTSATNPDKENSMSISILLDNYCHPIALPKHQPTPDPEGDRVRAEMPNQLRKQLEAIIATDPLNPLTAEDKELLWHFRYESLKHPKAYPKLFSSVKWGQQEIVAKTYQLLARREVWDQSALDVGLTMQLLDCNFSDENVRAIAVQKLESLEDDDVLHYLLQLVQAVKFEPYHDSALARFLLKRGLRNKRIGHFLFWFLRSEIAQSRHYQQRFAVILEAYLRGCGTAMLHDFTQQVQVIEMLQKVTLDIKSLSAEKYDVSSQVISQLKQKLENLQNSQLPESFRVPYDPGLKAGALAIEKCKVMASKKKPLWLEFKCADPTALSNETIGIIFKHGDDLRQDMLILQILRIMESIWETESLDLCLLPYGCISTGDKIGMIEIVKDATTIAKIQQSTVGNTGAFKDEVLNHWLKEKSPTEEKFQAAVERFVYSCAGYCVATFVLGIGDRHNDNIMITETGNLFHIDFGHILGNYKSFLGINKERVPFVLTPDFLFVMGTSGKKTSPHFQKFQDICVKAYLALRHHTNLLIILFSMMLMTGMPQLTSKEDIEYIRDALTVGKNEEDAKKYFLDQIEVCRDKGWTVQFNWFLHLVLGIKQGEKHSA

[3] = molecular target: Dual specificity mitogen-activated protein kinase kinase 5 (Homo sapiens) (UniProt Q13163); assay: Binding affinity to wild-type human partial length MEK5 (L98 to P448 residues) expressed in mammalian expression system assessed as residual binding level at 1 uM by Kinomescan method relative to control
Chain of Dual specificity mitogen-activated protein kinase kinase 5 (Homo sapiens) (Q13163 whole entry, the tested form may be a part): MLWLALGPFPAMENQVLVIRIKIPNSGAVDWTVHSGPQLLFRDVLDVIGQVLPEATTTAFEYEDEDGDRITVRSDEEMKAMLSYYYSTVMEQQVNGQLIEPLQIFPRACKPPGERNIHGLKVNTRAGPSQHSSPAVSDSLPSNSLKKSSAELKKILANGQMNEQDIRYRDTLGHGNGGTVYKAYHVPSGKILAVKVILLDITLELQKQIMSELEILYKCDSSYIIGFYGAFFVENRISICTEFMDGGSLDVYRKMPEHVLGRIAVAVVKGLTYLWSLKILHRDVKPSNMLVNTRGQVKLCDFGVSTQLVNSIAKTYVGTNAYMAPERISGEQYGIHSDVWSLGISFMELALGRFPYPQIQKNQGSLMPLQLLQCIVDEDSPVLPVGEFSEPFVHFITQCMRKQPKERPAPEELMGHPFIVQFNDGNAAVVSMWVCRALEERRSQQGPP

[4] = molecular target: 5'-AMP-activated protein kinase catalytic subunit alpha-1 (Homo sapiens) (UniProt Q13131); assay: Binding affinity to wild-type human partial length AMPK alpha1 (M1 to E306 residues) expressed in bacterial expression system assessed as residual binding level at 1 uM by Kinomescan method relative to control
[5] = tested on: Hepatocyte growth factor receptor (Homo sapiens), P08581 [Y1235D]; assay: Binding affinity to human partial length MET Y1235D mutant (D1010 to S1367 residues) expressed in bacterial expression system assessed as residual binding level at 1 uM by Kinomescan method relative to control
[6] = molecular target: Ribosomal protein S6 kinase alpha-4 (Homo sapiens) (UniProt O75676); assay: Binding affinity to wild-type human partial length N-terminal RPS6KA4 kinase domain 1 expressed in bacterial expression system assessed as residual binding level at 1 uM by Kinomescan method relative to control
[7] = molecular target: Interferon-induced, double-stranded RNA-activated protein kinase (Homo sapiens) (UniProt P19525); assay: Binding affinity to wild-type human partial length PRKR (F247 to C551 residues) expressed in bacterial expression system assessed as residual binding level at 1 uM by Kinomescan method relative to control
[8] = molecular target: Myosin light chain kinase family member 4 (Homo sapiens) (UniProt Q86YV6); assay: Binding affinity to wild-type human partial length MYLK4 (V79 to S380 residues) expressed in bacterial expression system assessed as residual binding level at 1 uM by Kinomescan method relative to control
[9] = molecular target: Serine/threonine-protein kinase TBK1 (Homo sapiens) (UniProt Q9UHD2); assay: Binding affinity to wild-type human full length TBK1 (M1 to L729 residues) expressed in mammalian expression system assessed as residual binding level at 1 uM by Kinomescan method relative to control
[10] = tested on: Epidermal growth factor receptor (Homo sapiens), P00533 [UNDEFINED MUTATION]; assay: Binding affinity to human partial length EGFR S752-I759del mutant expressed in bacterial expression system assessed as residual binding level at 1 uM by Kinomescan method relative to control
Chain of Epidermal growth factor receptor (Homo sapiens), P00533 [UNDEFINED MUTATION] (P00533 whole entry, looked up, stated change not applied, the tested form may be a part): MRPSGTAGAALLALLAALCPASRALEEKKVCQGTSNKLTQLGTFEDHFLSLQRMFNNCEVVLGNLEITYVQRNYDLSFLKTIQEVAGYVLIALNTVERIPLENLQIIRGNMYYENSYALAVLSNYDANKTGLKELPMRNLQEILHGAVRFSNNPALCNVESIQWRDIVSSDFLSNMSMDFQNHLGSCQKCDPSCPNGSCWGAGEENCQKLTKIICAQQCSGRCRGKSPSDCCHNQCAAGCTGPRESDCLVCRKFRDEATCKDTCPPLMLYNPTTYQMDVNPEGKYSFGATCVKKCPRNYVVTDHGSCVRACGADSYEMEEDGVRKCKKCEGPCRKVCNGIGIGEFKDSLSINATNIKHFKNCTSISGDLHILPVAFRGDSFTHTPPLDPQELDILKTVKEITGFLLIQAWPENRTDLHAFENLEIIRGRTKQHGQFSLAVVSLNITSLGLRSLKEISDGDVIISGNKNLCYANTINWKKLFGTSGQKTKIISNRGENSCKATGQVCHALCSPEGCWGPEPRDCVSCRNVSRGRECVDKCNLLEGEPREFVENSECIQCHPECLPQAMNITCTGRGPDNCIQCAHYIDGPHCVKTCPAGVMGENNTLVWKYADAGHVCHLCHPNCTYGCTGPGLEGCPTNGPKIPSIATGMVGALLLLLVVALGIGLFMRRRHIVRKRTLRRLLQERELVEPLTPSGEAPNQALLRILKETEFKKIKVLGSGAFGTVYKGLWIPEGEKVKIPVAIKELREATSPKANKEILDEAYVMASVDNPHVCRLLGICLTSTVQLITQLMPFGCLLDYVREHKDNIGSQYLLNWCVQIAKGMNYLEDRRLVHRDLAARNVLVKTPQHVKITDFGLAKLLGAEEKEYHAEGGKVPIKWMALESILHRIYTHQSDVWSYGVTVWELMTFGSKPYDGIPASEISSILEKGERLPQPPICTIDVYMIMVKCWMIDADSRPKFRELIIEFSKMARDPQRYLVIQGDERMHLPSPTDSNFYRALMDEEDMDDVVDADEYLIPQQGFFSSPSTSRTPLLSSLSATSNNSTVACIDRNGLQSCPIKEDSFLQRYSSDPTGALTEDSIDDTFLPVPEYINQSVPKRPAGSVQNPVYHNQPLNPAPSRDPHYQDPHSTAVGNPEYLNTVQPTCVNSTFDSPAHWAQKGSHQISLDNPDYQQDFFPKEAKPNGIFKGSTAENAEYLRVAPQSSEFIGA

[11] = molecular target: Testis-specific serine/threonine-protein kinase 1 (Homo sapiens) (UniProt Q9BXA7); assay: Binding affinity to wild-type human full length TSSK1B (M1 to Q367 residues) expressed in bacterial expression system assessed as residual binding level at 1 uM by Kinomescan method relative to control
Chain of Testis-specific serine/threonine-protein kinase 1 (Homo sapiens) (Q9BXA7 whole entry, the tested form may be a part): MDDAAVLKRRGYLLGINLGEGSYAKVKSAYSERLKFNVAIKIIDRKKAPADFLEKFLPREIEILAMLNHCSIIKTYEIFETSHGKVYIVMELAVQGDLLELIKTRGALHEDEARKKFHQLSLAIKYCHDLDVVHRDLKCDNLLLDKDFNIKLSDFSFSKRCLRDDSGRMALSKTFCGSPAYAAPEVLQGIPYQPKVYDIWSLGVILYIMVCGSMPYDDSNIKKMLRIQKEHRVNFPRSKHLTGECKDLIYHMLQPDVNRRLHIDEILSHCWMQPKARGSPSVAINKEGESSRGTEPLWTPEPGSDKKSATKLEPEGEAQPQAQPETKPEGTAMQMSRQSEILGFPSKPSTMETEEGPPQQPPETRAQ

[12] = tested on: Tyrosine-protein kinase ABL1 (Homo sapiens), P00519 [Y253F]; assay: Binding affinity to human phosphorylated ABL1 Y253F mutant (S229 to K512 residues) expressed in mammalian expression system assessed as residual binding level at 1 uM by Kinomescan method relative to control
[13] = tested on: Mast/stem cell growth factor receptor Kit (Homo sapiens), P10721 [L576P]; assay: Binding affinity to human partial length KIT L576P mutant (Y545 to D952 residues) expressed in bacterial expression system assessed as residual binding level at 1 uM by Kinomescan method relative to control
[14] = molecular target: Dual specificity protein kinase CLK2 (Homo sapiens) (UniProt P49760); assay: Binding affinity to wild-type human partial length CLK2 (D144 to R498 residues) expressed in bacterial expression system assessed as residual binding level at 1 uM by Kinomescan method relative to control
[15] = molecular target: Cyclin-dependent kinase-like 3 (Homo sapiens) (UniProt Q8IVW4); assay: Binding affinity to wild-type human partial length CDKL3 (M1 to D327 residues) expressed in bacterial expression system assessed as residual binding level at 1 uM by Kinomescan method relative to control
Chain of Cyclin-dependent kinase-like 3 (Homo sapiens) (Q8IVW4 whole entry, looked up, the tested form may be a part): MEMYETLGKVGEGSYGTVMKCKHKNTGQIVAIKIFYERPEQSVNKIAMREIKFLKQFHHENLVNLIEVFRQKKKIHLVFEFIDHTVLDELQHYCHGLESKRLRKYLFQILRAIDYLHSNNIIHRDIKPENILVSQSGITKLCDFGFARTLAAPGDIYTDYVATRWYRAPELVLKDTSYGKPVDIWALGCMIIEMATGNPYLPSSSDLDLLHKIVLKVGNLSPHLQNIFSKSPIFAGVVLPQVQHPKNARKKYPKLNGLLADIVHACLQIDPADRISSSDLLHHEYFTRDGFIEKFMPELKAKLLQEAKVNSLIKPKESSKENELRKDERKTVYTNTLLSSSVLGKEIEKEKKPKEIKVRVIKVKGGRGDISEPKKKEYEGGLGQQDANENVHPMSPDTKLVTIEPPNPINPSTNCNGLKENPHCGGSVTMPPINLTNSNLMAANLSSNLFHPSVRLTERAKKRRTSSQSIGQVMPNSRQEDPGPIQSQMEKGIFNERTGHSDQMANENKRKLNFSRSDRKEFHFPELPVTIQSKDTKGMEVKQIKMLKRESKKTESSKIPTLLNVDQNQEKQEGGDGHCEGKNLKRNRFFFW

[16] = molecular target: Tyrosine-protein kinase ABL1 (Homo sapiens) (UniProt P00519); assay: Binding affinity to wild-type human phosphorylated ABL1 (S229 to K512 residues) expressed in mammalian expression system assessed as residual binding level at 1 uM by Kinomescan method relative to control
[17] = molecular target: cAMP-dependent protein kinase catalytic subunit PRKX (Homo sapiens) (UniProt P51817); assay: Binding affinity to wild-type human partial length PRKX (M1 to F358 residues) expressed in bacterial expression system assessed as residual binding level at 1 uM by Kinomescan method relative to control
[18] = molecular target: Interleukin-1 receptor-associated kinase 1 (Homo sapiens) (UniProt P51617); assay: Binding affinity to wild-type human partial length IRAK1 (R194 to S712 residues) expressed in mammalian expression system assessed as residual binding level at 1 uM by Kinomescan method relative to control
Chain of Interleukin-1 receptor-associated kinase 1 (Homo sapiens) (P51617 whole entry, looked up, the tested form may be a part): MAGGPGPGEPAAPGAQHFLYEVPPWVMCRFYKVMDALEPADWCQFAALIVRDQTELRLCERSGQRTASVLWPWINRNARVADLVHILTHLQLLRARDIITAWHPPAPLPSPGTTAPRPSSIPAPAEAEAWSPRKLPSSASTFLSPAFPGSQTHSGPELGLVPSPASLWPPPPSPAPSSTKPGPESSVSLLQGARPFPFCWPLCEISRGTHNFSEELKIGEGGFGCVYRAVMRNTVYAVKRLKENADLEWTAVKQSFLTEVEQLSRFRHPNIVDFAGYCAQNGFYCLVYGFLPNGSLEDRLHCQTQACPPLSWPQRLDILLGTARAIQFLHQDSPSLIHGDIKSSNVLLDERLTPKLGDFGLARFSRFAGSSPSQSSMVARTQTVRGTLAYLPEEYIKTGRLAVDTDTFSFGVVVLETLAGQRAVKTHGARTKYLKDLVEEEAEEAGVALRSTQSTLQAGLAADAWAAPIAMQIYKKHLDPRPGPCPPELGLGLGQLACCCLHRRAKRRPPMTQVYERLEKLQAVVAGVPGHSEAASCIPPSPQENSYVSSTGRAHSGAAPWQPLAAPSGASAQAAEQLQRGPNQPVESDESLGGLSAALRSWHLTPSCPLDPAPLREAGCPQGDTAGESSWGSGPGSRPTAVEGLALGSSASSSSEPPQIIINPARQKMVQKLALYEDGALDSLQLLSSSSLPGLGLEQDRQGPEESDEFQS

[19] = tested on: Tyrosine-protein kinase ABL1 (Homo sapiens), P00519 [F317L]; assay: Binding affinity to human phosphorylated ABL1 F317L mutant (S229 to K512 residues) expressed in mammalian expression system assessed as residual binding level at 1 uM by Kinomescan method relative to control
[20] = molecular target: Ephrin type-A receptor 2 (Homo sapiens) (UniProt P29317); assay: Binding affinity to wild-type human partial length EPHA2 (T593 to V891 residues) expressed in bacterial expression system assessed as residual binding level at 1 uM by Kinomescan method relative to control
[21] = molecular target: Serine/threonine-protein kinase tousled-like 2 (Homo sapiens) (UniProt Q86UE8); assay: Binding affinity to wild-type human partial length TLK2 (E424 to N749 residues) expressed in bacterial expression system assessed as residual binding level at 1 uM by Kinomescan method relative to control
[22] = molecular target: Proto-oncogene tyrosine-protein kinase Src (Homo sapiens) (UniProt P12931); assay: Binding affinity to wild-type human partial length SRC (L240 to L536 residues) expressed in bacterial expression system assessed as residual binding level at 1 uM by Kinomescan method relative to control
Chain of Proto-oncogene tyrosine-protein kinase Src (Homo sapiens) (P12931 2-536 limits assumed): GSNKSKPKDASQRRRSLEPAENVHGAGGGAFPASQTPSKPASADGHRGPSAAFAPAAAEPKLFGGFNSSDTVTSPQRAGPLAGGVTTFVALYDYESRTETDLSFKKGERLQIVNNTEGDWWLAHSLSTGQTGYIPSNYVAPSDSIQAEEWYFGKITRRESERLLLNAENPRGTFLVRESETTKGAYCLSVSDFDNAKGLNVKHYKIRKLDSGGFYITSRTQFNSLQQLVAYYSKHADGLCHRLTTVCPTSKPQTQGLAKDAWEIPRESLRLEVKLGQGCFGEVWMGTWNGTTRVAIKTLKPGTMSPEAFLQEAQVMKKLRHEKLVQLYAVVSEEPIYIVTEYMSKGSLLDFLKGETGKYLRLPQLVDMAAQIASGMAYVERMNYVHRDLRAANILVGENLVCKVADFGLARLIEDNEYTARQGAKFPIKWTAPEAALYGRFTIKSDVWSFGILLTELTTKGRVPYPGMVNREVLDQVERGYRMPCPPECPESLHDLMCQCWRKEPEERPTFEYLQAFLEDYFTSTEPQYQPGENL

[23] = molecular target: Dual specificity protein kinase CLK4 (Homo sapiens) (UniProt Q9HAZ1); assay: Binding affinity to wild-type human partial length CLK4 (R135 to K481 residues) expressed in bacterial expression system assessed as residual binding level at 1 uM by Kinomescan method relative to control
[24] = molecular target: Angiopoietin-1 receptor (Homo sapiens) (UniProt Q02763); assay: Binding affinity to wild-type human partial length TIE2 (N804 to T1112 residues) expressed in bacterial expression system assessed as residual binding level at 1 uM by Kinomescan method relative to control

## CC(C)Nc1sc(C(=O)c2ccc(Cl)s2)c(N)c1C#N
[1]
  Activity: 66%
[2]
  Activity: 100%
[3]
  Activity: 100%
[4]
  Activity: 70%
[5]
  Activity: 73%
[6]
  Activity: 100%
[7]
  Activity: 68%
[8]
  Activity: 96%
[9]
  Activity: 97%
[10]
  Activity: 75%
[11]
  Activity: 100%
[12]
  Activity: 100%
[13]
  Activity: 64%
[14]
  Activity: 60%
[15]
  Activity: 47%
[16]
  Activity: 100%
[17]
  Activity: 79%
[18]
  Activity: 77%
[19]
  Activity: 100%
[20]
  Activity: 100%
[21]
  Activity: 100%
[22]
  Activity: 83%
[23]
  Activity: 88%
[24]
  Activity: 96%
